Test results: patent US9770446B2, “Piperidine urea derivatives” (MERCK PATENT GMBH, priority 2013, dated 2017)

What was measured:
[1] = molecular target: T1, GST-tagged Tankyrase-2 (873-1166 aa) (Homo sapiens, UniProt Q9H2K2); assay: Tankyrase 2 autoparsylation HTRF enzyme assay; assay type: biochemical; settings: read-out: IC50 TNKS2 enzyme assay
T1 construct: GST-tagged Tankyrase-2 (873-1166 aa)
Experimental: Biochemical activity testing of Tankyrase 1 and 2: Autoparsylation assay
The autoparsylation assay is run in two steps: the enzymatic reaction in which GST-tagged Tankyrase-1, resp Tankyrase-2 transferred biotinylated ADP-ribose to itself from biotinylated NAD as co-substrate and the detection reaction where a time resolved FRET between cryptate labelled anti-GST bound to the GST tag of the enzyme and Xlent® labelled-streptavidin bound the biotin-parsylation residue is analysed. The autoparsylation activity was detectable directly via the increase in HTRF signal.
The autoparsylation assay is performed as 384-well HTRF® (Cisbio, Codolet, France) assay format in Greiner low volume nb 384-well microtiter plates and is used for high throughput screen. 250 nM GST-tagged Tankyrase-1 (1023-1327 aa), respectively about 250 nM GST-tagged Tankyrase-2 (873-1166 aa) and 5 μM bio-NAD (Biolog, Life science Inst., Bremen, Germany) as co-substrate are incubated in a total volume of 5 μl (50 mM HEPES, 4 mM Mg-chloride, 0.05% Pluronic F-68, 1.4 mM DTT, 0.5% DMSO, pH 7.7) in the absence or presence of the test compound (10 dilution concentrations) for 90 min at 30° C. The reaction is stopped by the addition of 1 μl 50 mM EDTA solution. 2 μl of the detection solution (1.6 μM SA-Xlent® (Cisbio, Codolet, France), 7.4 nM Anti-GST-K® (Eu-labelled anti-GST, Cisbio, Codolet, France) in 50 mM HEPES, 800 mM KF, 0.1% BSA, 20 mM EDTA, 0.1% CHAPS, pH 7.0) are added. After 1 h incubation at room temperature the HTRF is measured with an Envision multimode reader (Perkin Elmer LAS Germany GmbH) at excitation wavelength 340 nm (laser mode) and emission wavelengths 615 nm and 665 nm. The ratio of the emission signals is determined. The full value used is the inhibitor-free reaction. The pharmacological zero value used is XAV-939 (Tocris) in a final concentration of 5 μM. The inhibitory values (IC50) are determined using either the program Symyx Assay Explorer® or Condosseo® from GeneData.

[2] = molecular target: T2, GST-tagged Tnks-1 (1023-1327 aa) (Homo sapiens, UniProt O95271); assay: TNKS1 activity ELISA (autoparsylation assay); assay type: biochemical
T2 construct: GST-tagged Tnks-1 (1023-1327 aa, prepared in-house); made in house
T2 sequence (O95271 1023-1327): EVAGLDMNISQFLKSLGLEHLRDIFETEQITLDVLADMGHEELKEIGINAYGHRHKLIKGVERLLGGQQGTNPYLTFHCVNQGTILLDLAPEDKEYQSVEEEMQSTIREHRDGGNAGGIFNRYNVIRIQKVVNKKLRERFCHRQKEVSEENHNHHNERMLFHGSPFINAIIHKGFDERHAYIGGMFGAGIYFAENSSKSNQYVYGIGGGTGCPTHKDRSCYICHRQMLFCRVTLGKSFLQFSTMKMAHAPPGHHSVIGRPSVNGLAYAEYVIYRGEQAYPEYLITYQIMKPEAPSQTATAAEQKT
Procedure, shortened: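 Each GST-tagged enzyme (20 ng/well) was captured overnight at 4 °C on glutathione plates, then auto-ADP-ribosylated with 10 μM biotin-NAD for 1 h at 30 °C, pH 7.7, 0.5% DMSO, compound at 10 concentrations. Streptavidin-HRP chemiluminescence measured the signal. IC50 relative to inhibitor-free reaction, with 5 μM XAV-939 defining zero.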

Tankyrase = assay: Cellular inhibition of Tankyrase: Axin2 level in DLD1 cells (Luminex); assay type: cell-based; settings: 24 hours, Axin2 increase, read-out: EC50 [M] TNKS cellular assay
Procedure, shortened: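 DLD1 colon carcinoma cells treated 24 h with seven-step serial dilutions in triplicate (0.3% DMSO final). Axin2 in cleared lysates captured on anti-Axin2 beads, detected with polyclonal anti-Axin2 plus PE secondary, and quantified by Luminex. EC50 from data normalized to solvent control; IWR-2 (3E-06 M) marks maximal Axin2 increase.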

T1 sequence (Q9H2K2 873-1166): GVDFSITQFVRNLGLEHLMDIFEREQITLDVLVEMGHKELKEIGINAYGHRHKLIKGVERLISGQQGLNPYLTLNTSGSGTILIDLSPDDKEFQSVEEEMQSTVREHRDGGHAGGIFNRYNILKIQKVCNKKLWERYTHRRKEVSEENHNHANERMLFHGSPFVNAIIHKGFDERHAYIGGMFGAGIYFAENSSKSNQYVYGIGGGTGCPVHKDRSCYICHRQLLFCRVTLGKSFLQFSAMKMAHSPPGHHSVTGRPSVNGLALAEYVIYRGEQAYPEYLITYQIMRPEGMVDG

SMILES | IC50 [1] | IC50 [2] | EC50 (Tankyrase)
Cc1cccc(N(C)C(=O)N2CCC(C(=O)c3ccccc3)CC2)c1 [Compound A1, 4-benzoyl-piperidine-1-carboxylic acid methyl-m-tolyl-amide] | 0.3 to 3 µM | < 0.3 µM | 3e-07 to 3e-06 M
Cc1ccc(N(C)C(=O)N2CCC(C(=O)c3ccccc3)CC2)cc1 [Compound A2, 4-benzoyl-piperidine-1-carboxylic acid methyl-p-tolyl-amide] | 0.3 to 3 µM | < 0.3 µM | 3e-07 to 3e-06 M
COc1ccc(N(C)C(=O)N2CCC(C(=O)c3ccccc3)CC2)cc1 [Compound A4, 4-benzoyl-piperidine-1-carboxylic acid (4-methoxy-phenyl)-methyl-amide] | 0.3 to 3 µM | < 0.3 µM | 3e-07 to 3e-06 M
COc1ccc(N(C)C(=O)N2CCC(C(=O)c3ccc(C)cc3)CC2)cc1 [Compound A5, 4-(4-methyl-benzoyl)-piperidine-1-carboxylic acid (4-methoxy-phenyl)-methylamide] | 0.3 to 3 µM | < 0.3 µM | < 3e-07 M
COc1ccc(C(=O)C2CCN(C(=O)N(C)c3ccc(OC)cc3)CC2)cc1 [Compound A6, 4-(4-methoxy-benzoyl)-piperidine-1-carboxylic acid (4-methoxy-phenyl)methyl-amide] | 0.3 to 3 µM | < 0.3 µM | < 3e-07 M
COc1ccc(N(C)C(=O)N2CCC(C(=O)c3cccc(F)c3)CC2)cc1 [Compound A7, 4-(3-fluoro-benzoyl)-piperidine-1-carboxylic acid (4-methoxy-phenyl)-methylamide] | 0.3 to 3 µM | < 0.3 µM | 3e-07 to 3e-06 M
COc1ccc(N(C)C(=O)N2CCC(C(=O)c3ccc(F)cc3)CC2)cc1 [Compound A8, 4-(4-fluoro-benzoyl)-piperidine-1-carboxylic acid (4-methoxy-phenyl)-methylamide] | 0.3 to 3 µM | < 0.3 µM | < 3e-07 M
CN(C(=O)N1CCC(C(=O)c2ccccc2)CC1)c1ccc(F)cc1 [Compound A13, 4-benzoyl-piperidine-1-carboxylic acid (4-fluoro-phenyl)-methyl-amide] | 0.3 to 3 µM | < 0.3 µM | 3e-07 to 3e-06 M
CCN(C(=O)N1CCC(C(=O)c2ccccc2)CC1)c1ccc(OC)cc1 [Compound A14, 4-benzoyl-piperidine-1-carboxylic acid ethyl-(4-methoxy-phenyl)-amide] | 0.3 to 3 µM | < 0.3 µM | < 3e-07 M
COc1ccc(N(CCO)C(=O)N2CCC(C(=O)c3ccccc3)CC2)cc1 [Compound A15, 4-benzoyl-piperidine-1-carboxylic acid (2-hydroxy-ethyl)-(4-methoxy-phenyl)amide] | 0.3 to 3 µM | < 0.3 µM | 3e-07 to 3e-06 M
O=C(c1ccccc1)C1CCN(C(=O)N2CCc3ccccc32)CC1 [Compound A16, (4-benzoyl-piperidin-1-yl)-(2,3-dihydro-indol-1-yl)-methanone] | 0.3 to 3 µM | < 0.3 µM | 3e-06 to 5e-05 M
Cc1ccc(C(=O)C2CCN(C(=O)N3CCc4ccccc43)CC2)cc1 [Compound A17, (2,3-dihydro-indol-1-yl)-[4-(4-methyl-benzoyl)-piperidin-1-yl]-methanone] | 0.3 to 3 µM | < 0.3 µM | 3e-07 to 3e-06 M
COc1ccc(C(=O)C2CCN(C(=O)N3CCc4ccccc43)CC2)cc1 [Compound A18, (2,3-dihydro-indol-1-yl)-[4-(4-methoxy-benzoyl)-piperidin-1-yl]-methanone] | 0.3 to 3 µM | < 0.3 µM | 3e-07 to 3e-06 M
CCN(C(=O)N1CCC(C(=O)c2ccc(OC)c(C)c2)CC1)c1ccc(OC)cc1 [Compound A24, 4-(4-methoxy-3-methyl-benzoyl)-piperidine-1-carboxylic acid ethyl-(4-methoxy-phenyl)-amide] | 0.3 to 3 µM | < 0.3 µM | < 3e-07 M
COc1ccc(N(C)C(=O)N2CCC(C(=O)c3cccc(C)c3)CC2)cc1 [Compound A25, 4-(3-methyl-benzoyl)-piperidine-1-carboxylic acid (4-methoxy-phenyl)methyl-amide] | 0.3 to 3 µM | < 0.3 µM | < 3e-07 M
CCN(C(=O)N1CCC(C(=O)c2cccc(C)c2)CC1)c1ccc(OC)cc1 [Compound A26, 4-(3-methyl-benzoyl)-piperidine-1-carboxylic acid ethyl-(4-methoxy-phenyl)amide] | 0.3 to 3 µM | < 0.3 µM | < 3e-07 M
COc1ccc(N(C)C(=O)N2CCC(C(=O)c3cccc(OC)c3)CC2)cc1 [Compound A27, 4-(3-methoxy-benzoyl)-piperidine-1-carboxylic acid (4-methoxy-phenyl)methyl-amide] | 0.3 to 3 µM | < 0.3 µM | < 3e-07 M
CCN(C(=O)N1CCC(C(=O)c2cccc(OC)c2)CC1)c1ccc(OC)cc1 [Compound A28, 4-(3-methoxy-benzoyl)-piperidine-1-carboxylic acid ethyl-(4-methoxy-phenyl)amide] | < 0.3 µM | < 0.3 µM | < 3e-07 M
COc1ccc(N(C)C(=O)N2CCC(C(=O)c3ccc(OC)c(F)c3)CC2)cc1 [Compound A29, 4-(3-fluoro-4-methoxy-benzoyl)-piperidine-1-carboxylic acid (4-methoxy-phenyl)-methyl-amide] | 0.3 to 3 µM | < 0.3 µM | < 3e-07 M
CN(C(=O)N1CCC(C(=O)c2ccc(NS(C)(=O)=O)cc2)CC1)c1ccccc1 [Compound A38, 4-(4-methanesulfonylamino-benzoyl)-piperidine-1-carboxylic acid methyl-phenyl-amide] | 0.3 to 3 µM | < 0.3 µM | 3e-07 to 3e-06 M
CCOC(=O)CN(C(=O)N1CCC(C(=O)c2ccc(OC)cc2)CC1)c1ccccc1 [Compound A40, {[4-(4-methoxy-benzoyl)-piperidine-1-carbonyl]-phenyl-amino}-acetic acid ethyl ester] | 0.3 to 3 µM | < 0.3 µM | < 3e-07 M
